Experimental data taken from patent publication US20210024545A1, “SUBSTITUTED DIAZAHETERO-BICYCLIC COMPOUNDS AND THEIR USE” (Bayer Aktiengesellschaft, priority 2016, published 2021).

Legend:
human TASK-1 = human TASK-1 (Homo sapiens, UniProt O14649); assay: Inhibition of recombinant TASK-1 in stably transfected CHO cells, KCl-induced depolarization, voltage-sensitive dye (B-2); type: cell-based; set-up: expressed in transfected cells; host or cells: stably transfected CHO cells; conditions: depolarization induced by 40 mM potassium chloride, some mean values from multiple determinations
human TASK-1, sequence (O14649 whole entry): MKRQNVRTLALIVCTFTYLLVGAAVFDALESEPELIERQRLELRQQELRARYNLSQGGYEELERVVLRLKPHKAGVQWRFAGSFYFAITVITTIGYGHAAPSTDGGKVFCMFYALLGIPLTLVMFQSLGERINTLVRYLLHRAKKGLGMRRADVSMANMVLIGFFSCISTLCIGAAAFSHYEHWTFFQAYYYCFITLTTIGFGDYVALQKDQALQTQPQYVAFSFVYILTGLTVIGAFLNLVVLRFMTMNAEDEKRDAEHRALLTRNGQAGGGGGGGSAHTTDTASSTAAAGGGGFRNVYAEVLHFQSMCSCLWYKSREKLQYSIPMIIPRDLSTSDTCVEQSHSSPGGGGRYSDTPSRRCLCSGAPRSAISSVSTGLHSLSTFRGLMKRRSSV
Description: (§1) B-2. Inhibition of Recombinant TASK-1 and TASK-3 In Vitro
(§2) The investigations on the inhibition of the recombinant TASK-1 and TASK-3 channels were conducted using stably transfected CHO cells. The compounds of the invention were tested here with administration of 40 mM of potassium chloride in the presence of a voltage-sensitive dye using the method described in detail in the following references [Whiteaker et al., Validation of FLIPR membrane potential dye for high-throughput screening of potassium channel modulators, J. Biomol. Screen. 6 (5), 305-312 (2001); Molecular Devices FLIPR Application Note: Measuring membrane potential using the FLIPR® membrane potential assay kit on Fluorometric Imaging Plate Reader (FLIPR®) systems, http://www.moleculardevices.com/reagents-supplies/assay-kits/ion-channels/flipr-membrane-potential-assay-kits]. The activity of the test substances was determined as their ability to inhibit a depolarization induced in the recombinant cells by 40 mM potassium chloride. The concentration which can block half of this depolarization is referred to as IC50).
(§3) Table 2 below lists the IC50 values from this assay determined for individual working examples of the invention (some as mean values from multiple independent individual determinations): […]

human TASK-3 = human TASK-3 (Homo sapiens, UniProt Q9NPC2); assay: Inhibition of recombinant TASK-3 in stably transfected CHO cells, KCl-induced depolarization, voltage-sensitive dye (B-2); type: cell-based; set-up: expressed in transfected cells; host or cells: stably transfected CHO cells; conditions: depolarization induced by 40 mM potassium chloride, some mean values from multiple determinations
human TASK-3, sequence (Q9NPC2 whole entry): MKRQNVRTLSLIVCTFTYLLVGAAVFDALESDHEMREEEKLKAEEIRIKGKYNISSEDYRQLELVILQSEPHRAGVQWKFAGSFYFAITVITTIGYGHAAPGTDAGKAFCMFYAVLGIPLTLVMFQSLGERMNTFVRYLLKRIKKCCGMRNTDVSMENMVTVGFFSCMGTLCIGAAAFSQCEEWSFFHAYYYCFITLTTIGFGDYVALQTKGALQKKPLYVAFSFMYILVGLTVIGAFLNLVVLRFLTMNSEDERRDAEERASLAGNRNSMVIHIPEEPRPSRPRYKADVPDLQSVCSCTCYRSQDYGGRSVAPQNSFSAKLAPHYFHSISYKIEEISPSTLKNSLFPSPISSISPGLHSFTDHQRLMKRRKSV
Description: as §1, §2, §3

SMILES	IC50 (human TASK-1) [nM]	IC50 (human TASK-3) [nM]
O=C(C1CCCCC1)N1CC2CCC(C1)N2Cc1c(-c2ccc(Cl)cc2)nc2ccccn12 [Example 93]	2300	510
CC(C)c1ccc(-c2nc3ccccn3c2CN2C3CCC2CN(C(=O)c2ccccc2F)C3)cc1 [Example 94]	530	130
COc1cccc(C(=O)N2CC3CCC(C2)N3Cc2c(-c3ccc(C(C)C)cc3)nc3ccccn23)n1 [Example 95]	1700	350
O=C(C1CCCC1)N1C2CCC1CN(Cc1c(-c3ccc(Br)cc3)nc3ccccn13)C2 [Example 96]	240	4.5
O=C(c1ccccc1F)N1C2CCC1CN(Cc1c(-c3ccc(Br)cc3)nc3ccccn13)C2 [Example 97]	390	7.8
COc1cccc(C(=O)N2C3CCC2CN(Cc2c(-c4ccc(Br)cc4)nc4ccccn24)C3)n1 [Example 98]	450	14
COc1cccc(C(=O)N2C3CCC2CN(Cc2c(-c4ccc(Br)cc4)nc4ccccn24)C3)c1 [Example 99]	470	16
Cc1ccccc1C(=O)N1C2CCC1CN(Cc1c(-c3ccc(Cl)cc3)nc3ccccn13)C2 [Example 100]	250	17
O=C(C1CCC1)N1C2CCC1CN(Cc1c(-c3ccc(Cl)cc3)nc3ccccn13)C2 [Example 101]	370	7.2
COc1ccc(F)cc1C(=O)N1C2CCC1CN(Cc1c(-c3ccc(Cl)cc3)nc3ccccn13)C2 [Example 103]	540	20
O=C(C1CCCCC1)N1C2CCC1CN(Cc1c(-c3ccc(Cl)cc3)nc3ccccn13)C2 [Example 105]	830	20
O=C(c1cc(F)ccc1Cl)N1C2CCC1CN(Cc1c(-c3ccc(Cl)cc3)nc3ccccn13)C2 [Example 106]	870	110
Cc1ccc(F)cc1C(=O)N1C2CCC1CN(Cc1c(-c3ccc(Cl)cc3)nc3ccccn13)C2 [Example 107]	1000	33
COc1cccc(C(=O)N2C3CCC2CN(Cc2c(-c4ccc(Cl)cc4)nc4ccccn24)C3)c1 [Example 108]	1100	95
COc1ccccc1C(=O)N1C2CCC1CN(Cc1c(-c3ccc(Cl)cc3)nc3ccccn13)C2 [Example 109]	693	92
CC(C)c1ccc(-c2nc3ccccn3c2CN2CC3CCC(C2)N3C(=O)c2ccccc2F)cc1 [Example 110]	780	300
O=C(c1ccccc1F)N1C2CCC1CN(Cc1c(-c3ccc(Cl)cn3)nc3ccccn13)C2 [Example 111]	110	25
COc1cccc(C(=O)N2C3CCC2CN(Cc2c(-c4ccc(Cl)cn4)nc4ccccn24)C3)c1 [Example 112]	200	29
O=C(C1CCCC1)N1C2CCC1CN(Cc1c(-c3ccc(Cl)cn3)nc3ccccn13)C2 [Example 113]	89	21
O=C(c1cccc(Cl)c1)N1C2CC1CN(Cc1c(-c3ccc(Cl)cc3)nc3ccccn13)C2 [Example 114]	480	340
O=C(C1CCCC1)N1C2CC1CN(Cc1c(-c3ccc(Cl)cc3)nc3ccccn13)C2 [Example 116]	535	340

SMILES	IC50 (human TASK-1) [nM]	IC50 (human TASK-3) [nM]
O=C(c1ccccc1F)N1C2CC1CN(Cc1c(-c3ccc(Cl)cc3)nc3ccccn13)C2 [Example 117]	635	520
O=C(C1CCCCC1)N1C2CC1CN(Cc1c(-c3ccc(Cl)cc3)nc3ccccn13)C2 [Example 118]	860	1000
O=C(c1cc(F)ccc1Cl)N1C2CC1CN(Cc1c(-c3ccc(Cl)cc3)nc3ccccn13)C2 [Example 119]	1100	1500
O=C(c1cccc(OC(F)(F)F)c1)N1C2CC1CN(Cc1c(-c3ccc(Cl)cc3)nc3ccccn13)C2 [Example 120]	1100	180
O=C(C1CCC1)N1C2CC1CN(Cc1c(-c3ccc(Cl)cc3)nc3ccccn13)C2 [Example 121]	1700	2800
CCOc1cccc(C(=O)N2C3CC2CN(Cc2c(-c4ccc(Cl)cc4)nc4ccccn24)C3)c1 [Example 122]	1100	120
CC(C)c1ccc(-c2nc3ccccn3c2CN2CC3CC(C2)N3C(=O)C2CCCC2)cc1 [Example 123]	2000	1600
O=C(c1cccc(OC(F)(F)F)n1)N1C2COCC1CN(Cc1c(-c3ccc(Cl)cn3)nc3ccccn13)C2 [Example 135, (7-{[2-(5-Chloropyridin-2-yl)imidazo[1,2-a]pyridin-3-yl]methyl}-3-oxa-7,9-diazabicyclo[3.3.1]non-9-yl)[6-(trifluoromethoxy)pyridin-2-yl]methanone]	4100	160
COc1ccc(Cl)c(C(=O)N2C3COCC2CN(Cc2c(-c4ccc(Cl)cn4)nc4ccccn24)C3)n1 [Example 136, (3-Chloro-6-methoxypyridin-2-yl)(7-{[2-(5-chloropyridin-2-yl)imidazo[1,2-a]pyridin-3-yl]methyl}-3-oxa-7,9-diazabicyclo[3.3.1]non-9-yl)methanone]	9300	44
COc1ccc(Cl)c(C(=O)N2C3CCC2CN(Cc2c(-c4ccc(Br)cc4)nc4ccccn24)C3)n1 [Example 139, (3-{[2-(4-Bromophenyl)imidazo[1,2-a]pyridin-3-yl]methyl}-3,8-diazabicyclo[3.2.1]oct-8-yl)(3-chloro-6-methoxypyridin-2-yl)methanone]	290	18
COc1ccc(F)c(C(=O)N2C3CCC2CN(Cc2c(-c4ccc(Br)cc4)nc4ccccn24)C3)n1 [Example 140, (3-{[2-(4-Bromophenyl)imidazo[1,2-a]pyridin-3-yl]methyl}-3,8-diazabicyclo[3.2.1]oct-8-yl)(3-fluoro-6-methoxypyridin-2-yl)methanone]	160	21
CC(C)c1ccccc1C(=O)N1C2CCC1CN(Cc1c(-c3ccc(Br)cc3)nc3ccccn13)C2 [Example 141, (3-{[2-(4-Bromophenyl)imidazo[1,2-a]pyridin-3-yl]methyl}-3,8-diazabicyclo[3.2.1]oct-8-yl)(2-isopropylphenyl)methanone]	250	59
COc1ccc(C)c(C(=O)N2C3CC2CN(Cc2c(-c4ccc(Cl)cc4)nc4ccccn24)C3)n1 [Example 142, (3-{[2-(4-Chlorophenyl)imidazo[1,2-a]pyridin-3-yl]methyl}-3,6-diazabicyclo[3.1.1]hept-6-yl)(6-methoxy-3-methylpyridin-2-yl)methanone]	240	98
COc1ccc(C)c(C(=O)N2CC3CCC(C2)N3Cc2c(-c3ccc(Cl)cc3)nc3ccccn23)n1 [Example 143, (8-{[2-(4-Chlorophenyl)imidazo[1,2-a]pyridin-3-yl]methyl}-3,8-diazabicyclo[3.2.1]oct-3-yl)(6-methoxy-3-methylpyridin-2-yl)methanone]	130	14
COc1ccc(C)c(C(=O)N2CC3CCC(C2)N3Cc2c(-c3ccc(C(C)C)cc3)nc3ccccn23)n1 [Example 144, (8-{[2-(4-Isopropylphenyl)imidazo[1,2-a]pyridin-3-yl]methyl}-3,8-diazabicyclo[3.2.1]oct-3-yl)(6-methoxy-3-methylpyridin-2-yl)methanone]	180	27
COc1ccc(C)c(C(=O)N2C3CCC2CN(Cc2c(-c4ccc(C(C)C)cc4)nc4ccccn24)C3)n1 [Example 145, (3-{[2-(4-Isopropylphenyl)imidazo[1,2-a]pyridin-3-yl]methyl}-3,8-diazabicyclo[3.2.1]oct-8-yl)(6-methoxy-3-methylpyridin-2-yl)methanone]	280	27
CC(C)c1csc(C(=O)N2C3CCC2CN(Cc2c(-c4ccc(Cl)cc4)nc4ccccn24)C3)n1 [Example 146, (3-{[2-(4-Chlorophenyl)imidazo[1,2-a]pyridin-3-yl]methyl}-3,8-diazabicyclo[3.2.1]oct-8-yl)(4-isopropyl-1,3-thiazol-2-yl)methanone]	920	340
O=C(c1nccs1)N1C2CCC1CN(Cc1c(-c3ccc(Cl)cc3)nc3ccccn13)C2 [Example 147, (3-{[2-(4-Chlorophenyl)imidazo[1,2-a]pyridin-3-yl]methyl}-3,8-diazabicyclo[3.2.1]oct-8-yl)(1,3-thiazol-2-yl)methanone]	12	15
Cc1csc(C(=O)N2C3CCC2CN(Cc2c(-c4ccc(Cl)cc4)nc4ccccn24)C3)n1 [Example 148, (3-{[2-(4-Chlorophenyl)imidazo[1,2-a]pyridin-3-yl]methyl}-3,8-diazabicyclo[3.2.1]oct-8-yl)(4-methyl-1,3-thiazol-2-yl)methanone]	23	2.7
Cc1cnc(C(=O)N2C3CCC2CN(Cc2c(-c4ccc(Cl)cc4)nc4ccccn24)C3)s1 [Example 149, (3-{[2-(4-Chlorophenyl)imidazo[1,2-a]pyridin-3-yl]methyl}-3,8-diazabicyclo[3.2.1]oct-8-yl)(5-methyl-1,3-thiazol-2-yl)methanone]	3000	300
